# In patent US9539298B2, “Lissencephaly therapeutic agent” (OSAKA CITY UNIVERSITY, priority 2010, dated 2017):
# Assays:
# [1] = system: LIS1 heterozygous mice (lissencephaly model mice); assay: Behavior analysis: rotor rod test; type: in vivo, mouse; conditions: M2 and M3 groups, 200 μg/g per day oral
# Description: To conduct a behavior analysis experiment, wild-type mice and Lis1 (^+/−) heterozygous mice were divided into five groups (C group, M1 group, M2 group, M3 group, and M4 group). The details regarding the mice in each group are described below. CE-2 (CLEA Japan, Inc.) was used as mice feed. The wild-type mice and heterozygous mice used for this experiment were prepared in the same method as described in the above section “Preparation of LIS1 gene hetero-deficient mice (LIS1 heterozygous mice).”
# M2 group: LIS1 heterozygous mice prepared as follows. SNJ-1945 was dissolved in dimethyl sulfoxide (Sigma, D-5879) at a concentration of 100 mg/ml, and administered to pregnant mice from Day 9.5 of the embryonic period (E9.5) in an amount of 200 μg per gram of maternal body weight per day. The administration was performed by adding SNJ-1945 to mice feed. […]
# By adding SNJ-1945 to the mice feed (CE-2, CLEA Japan, Inc.), SNJ-1945 was continuously administered to the mice so that the administration amount became 200 μg per gram of body weight per day through oral administration. For a behavior analysis experiment, 12 to 16 mice were grouped to be subjected to preliminary breeding in the behavior experiment facility for 1 to 2 weeks; thereafter, the behavior of the mice was analyzed at an age of about 9 to 12 weeks. After the behavior analysis experiment, a gene type was determined for all mice. […]
# [2] = system: Lis1+/− cerebellar granule nerve cells; assay: Migration capability of cerebellar granule nerve cells; type: cell-based, mouse; conditions: 200 μM, 18-24 hours, FIG. 5
# Description: Cerebellum tissue fragments of LIS1 gene hetero-deficient and wild-type mice (3-7 days after birth) (10 mice for each group) were crushed by gentle pipetting, and treated with 0.025% trypsin (Gibco, 25200)/0.0013% DNaseI (Sigma, DN-25) at 37° C. for 20 minutes. After centrifugation, a BME culture solution (Gibco, 21010) containing 10% equine blood serum was added for washing, and the reaction was stopped. Thereafter, the reaction liquid was subjected to pipetting by adding a BME culture solution containing 0.0052% DNaseI/10% equine blood serum, and filtered with a cell mesh-strainer (diameter=70 μm; Becton Dickinson). […]
# After the incubation, the aggregates were washed with a phosphate buffer (PBS), and immobilized by 4% paraformaldehyde (Wako, 162-16065) (at room temperature, for 15 minutes). […] Thereafter, the aggregates were repeatedly washed well with PBS, and carefully embedded using glycerol (Merck) for fluorescence microscope observation so as to avoid damage.
# After careful observation using a confocal laser microscope (TCS-SP5, Leica), the migratory distance (μm) of the nerve cells from the marginal zone of the cerebellum granule cell aggregates was measured for each cell group. […] Further, an average migratory distance (μm) was calculated and expressed as average migratory distance (μm)±standard deviation. […]
structure (smiles),measurement,setting,value
"COCCOCCOC(=O)N[C@@H](CC(C)C)C(=O)N[C@@H](Cc1ccccc1)C(=O)C(=O)NC1CC1 [compound 17, ((1S)-1-((((1S)-1-Benzyl-2,3-dioxo-3-(cyclopropylamino)propyl)amino)carbonyl)-3-methylbutyl)carbamic acid 5-methoxy-3-oxapentyl ester]",motor ability development curve (time on the rod over repeated tests),[1]; FIG. 10,positioned between M1 group and C group
same,total time spent on the rod,[1]; FIG. 11,increased to the extent that there was almost no significant difference from C group
same,migration capability of nerve cells,[2],the recovery of migration capability was observed
